Results reported in patent US10874743B2, “IRAK degraders and uses thereof” (Kymera Therapeutics, Inc., priority 2017, dated 2020).

System: OCI-LY10 cells
Experiment: OCI-LY-10 CTG cell viability assay (EC50)
Type: cell-based
Conditions: Homo sapiens, 96 h, CellTiter-Glo cell viability, 4 days incubation, top concentration 10 μM, read-out: OCI-LY10 IRAK4 EC50
Experimental: A CTG cell viability assay using OCI-LY-10 cells was run to determine compound-mediated cell viability (EC50).
Compound-mediated viability effect on OCI-LY10 was quantitatively determined using the CellTiter-Glo® Luminescent Cell Viability Assay kit from Promega (Catalog number G7570) following manufacturer's recommended procedures. […] Compounds were then added to the assay plate with final top concentration of 10 μM and 1:3 dilution series with total of 9 doses. The final DMSO concentration was normalized to 0.2%. The assay plates were incubated at 37° C. for 4 days under 5% CO2. Then the assay plate was equilibrated at room temperature for 10 minutes. […] The data was then analyzed by software Prism 7.0 from GraphPad and the dose response curves were fit using a three-parameter logistic equation to calculate EC50.

Row | EC50 | Structure (SMILES)
1 | 50 to 100 nM | CN1CCN(C(=O)c2nn(-c3ccc(C(=O)NCCCCOCCCCc4ccc5c(c4)n(C)c(=O)n5C4CCC(=O)NC4=O)cc3)cc2NC(=O)c2coc(-c3ccnc(NCC(F)(F)F)c3)n2)CC1 (stereo not shown) [I-481]
2 | 100 to 500 nM | CN(C)CCNC(=O)c1nn(-c2ccc(C(=O)NCCCCOCCCCc3ccc4c(c3)n(C)c(=O)n4C3CCC(=O)NC3=O)cc2)cc1NC(=O)c1coc(-c2ccnc(NCC(F)(F)F)c2)n1 (stereo not shown) [I-482]
3 | > 1000 nM | Cc1ncsc1-c1ccc(CNC(=O)[C@@H]2C[C@@H](O)CN2C(=O)[C@@H](NC(=O)CCCCCCCCCCC(=O)N2CCN(c3ccn4ncc(C(=O)Nc5cn(C)nc5C(F)F)c4n3)CC2)C(C)(C)C)cc1 [I-483]
4 | > 1000 nM | Cc1ncsc1-c1ccc(CNC(=O)[C@@H]2C[C@@H](O)CN2C(=O)[C@@H](NC(=O)COCCOCCOCCOCCOCC(=O)N2CCN(c3ccn4ncc(C(=O)Nc5cn(C)nc5C(F)F)c4n3)CC2)C(C)(C)C)cc1 [I-484]
5 | > 1000 nM | Cc1ncsc1-c1ccc(CNC(=O)[C@@H]2C[C@@H](O)CN2C(=O)[C@@H](NC(=O)COCCOCCOCC(=O)N2CCN(c3ccn4ncc(C(=O)Nc5cn(C)nc5C(F)F)c4n3)CC2)C(C)(C)C)cc1 [I-485]
6 | > 1000 nM | CN(CCCOCCCc1ccc2c(c1)n(C)c(=O)n2C1CCC(=O)NC1=O)C(=O)c1ccc(-n2cc(NC(=O)c3coc(-c4ccnc(NCC(F)(F)F)c4)n3)c(C(N)=O)n2)cc1 (stereo not shown) [I-494]
7 | 500 to 1000 nM | CN1C(=O)CCC(n2c(=O)n(C)c3c(CCCOCCOCCNC(=O)c4ccc(-n5cc(NC(=O)c6coc(-c7ccnc(NCC8CC8)c7)n6)c(C(F)F)n5)cc4)cccc32)C1=O (stereo not shown) [I-515]
8 | > 1000 nM | Cc1ncsc1-c1ccc(CNC(=O)[C@@H]2C[C@@H](O)CN2C(=O)[C@@H](NCCOCCOCCOCCNCc2nn(C)cc2NC(=O)c2coc(-c3ccnc(NCC(F)(F)F)c3)n2)C(C)(C)C)cc1 [I-524]
9 | > 1000 nM | CN(CC(=O)N(C)CC(=O)N(C)CC(=O)N(C)CCCc1ccc2c(c1)n(C)c(=O)n2C1CCC(=O)NC1=O)Cc1ccc(-n2cc(NC(=O)c3coc(-c4ccnc(NCC(F)(F)F)c4)n3)c(C(N)=O)n2)cc1 (stereo not shown) [I-526]
10 | > 1000 nM | Cn1c(=O)n(C2CCC(=O)NC2=O)c2cccc(CCCOCCOCCNCc3ccc(-n4cc(NC(=O)c5cc(C#N)ccn5)c(C(N)=O)n4)cc3)c21 (stereo not shown) [I-527]
11 | > 1000 nM | Cn1c(=O)n(C2CCC(=O)NC2=O)c2cccc(CCCOCCOCCNCc3ccc(-n4cc5c(n4)CCCN5C(=O)c4coc(-c5ccnc(NCC(F)(F)F)c5)n4)cc3)c21 (stereo not shown) [I-528]
12 | < 50 nM | Cn1c(=O)n(C2CCC(=O)NC2=O)c2ccc(CCCOCCNCc3ccc(-n4cc(NC(=O)c5coc(-c6ccnc(NCC7CC7)c6)n5)c(C(F)F)n4)cc3)cc21 (stereo not shown) [I-531]
13 | 500 to 1000 nM | Cn1c(=O)n(C2CCC(=O)NC2=O)c2cccc(CCCOCCNCc3ccc(-n4cc(NC(=O)c5coc(-c6ccnc(NCC(F)(F)F)c6)n5)c(C(F)F)n4)cc3)c21 (stereo not shown) [I-533]
14 | > 1000 nM | N#Cc1nn(-c2ccc(CNCCOCCOCCCc3ccc4c(c3)oc(=O)n4C3CCC(=O)NC3=O)cc2)cc1NC(=O)c1coc(-c2ccnc(NCC3CC3)c2)n1 (stereo not shown) [I-538]
15 | < 50 nM | Cn1c(=O)n(C2CCC(=O)NC2=O)c2ccc(CCCC(C)(O)CCCNCc3ccc(-n4cc(NC(=O)c5coc(-c6ccnc(NCC7CC7)c6)n5)c(C(F)F)n4)cc3)cc21 (stereo not shown) [I-540]
16 | > 1000 nM | Cn1cc(NC(=O)c2coc(-c3ccnc(NCC(F)(F)F)c3)n2)c(-c2cncc(CNCCOCCOCCCc3cccc4c3n(C)c(=O)n4C3CCC(=O)NC3=O)c2)n1 (stereo not shown) [I-541]

Row | EC50 | Structure (SMILES)
17 | > 1000 nM | CN1C(=O)CCC(n2c(=O)n(C)c3c(CCCOCCOCCNCc4ccc(-n5cc(NC(=O)c6coc(-c7ccnc(NCC(F)(F)F)c7)n6)c(C(N)=O)n5)cc4)cccc32)C1=O (stereo not shown) [I-544]
18 | > 1000 nM | CN(C)CCNC(=O)c1nn(-c2ccc(CNCCCCOCCCCc3ccc4c(c3)n(C)c(=O)n4C3CCC(=O)NC3=O)cc2)cc1NC(=O)c1coc(-c2ccnc(NCC(F)(F)F)c2)n1 (stereo not shown) [I-560]
19 | > 1000 nM | Cn1c(=O)n(C2CCC(=O)NC2=O)c2ccc(CNC(=O)OCCCNCc3ccc(-n4cc(NC(=O)c5coc(-c6ccnc(NCC(F)(F)F)c6)n5)c(C(N)=O)n4)cc3)cc21 (stereo not shown) [I-563]
20 | > 1000 nM | Cn1c(=O)n(C2CCC(=O)NC2=O)c2ccc(CCCN3CCO[C@H](CNCc4ccc(-n5cc(NC(=O)c6coc(-c7ccnc(NCC8CC8)c7)n6)c(C(F)F)n5)cc4)C3)cc21 (stereo partly shown) [I-573]
21 | 100 to 500 nM | Cn1c(=O)n(C2CCC(=O)NC2=O)c2ccc(CCCN3CCO[C@@H](CCNCc4ccc(-n5cc(NC(=O)c6coc(-c7ccnc(NCC(F)(F)F)c7)n6)c(C(N)=O)n5)cc4)C3)cc21 (stereo partly shown) [I-575]
22 | 500 to 1000 nM | CN(CCCCOCCCCc1ccc2c(c1)n(C)c(=O)n2C1CCC(=O)NC1=O)Cc1ccc(-n2cc(NC(=O)c3coc(-c4ccnc(NCC(F)(F)F)c4)n3)c(C(N)=O)n2)cc1 (stereo not shown) [I-578]
23 | 100 to 500 nM | O=C1CCC(N2C[C@H](c3cccc(C#CCCOCCCNCc4ccc(-n5cc(NC(=O)c6coc(-c7ccnc(NCC8CC8)c7)n6)c(C(F)F)n5)cc4)c3)OC2=O)C(=O)N1 (stereo partly shown) [I-581]
24 | < 50 nM | Cn1c(=O)n(C2CCC(=O)NC2=O)c2ccc(C#CCCN3CCC(CNCc4ccc(-n5cc(NC(=O)c6coc(-c7ccnc(NCC8CC8)c7)n6)c(C(F)F)n5)cc4)CC3)cc21 (stereo not shown) [I-582]
25 | 50 to 100 nM | O=C1CCC(n2c3ccc(NCCOCCOCCNCc4ccc(-n5cc(NC(=O)c6coc(-c7ccnc(NCC8CC8)c7)n6)c(C(F)F)n5)cc4)cc3c3cccnc32)C(=O)N1 (stereo not shown) [I-595]
26 | > 1000 nM | CN1C(=O)CCC(n2c(=O)n(C)c3c(CCCOCCOCCNCc4ccc(-n5cc(NC(=O)c6coc(-c7ccnc(NCC8CC8)c7)n6)c(C(F)F)n5)cc4)cccc32)C1=O (stereo not shown) [I-596]
27 | 100 to 500 nM | COCCOCCNCc1ccc(-n2cc(NC(=O)c3coc(-c4ccnc(NCC(F)(F)F)c4)n3)c(C(N)=O)n2)cc1 [I-597]
28 | < 50 nM | CN(Cc1ccc(-n2cc(NC(=O)c3coc(-c4ccnc(NCC5CC5)c4)n3)c(C(F)F)n2)cc1)C[C@H]1CN(CCCc2ccc3c(c2)n(C)c(=O)n3C2CCC(=O)NC2=O)CCO1 (stereo partly shown) [I-598]
29 | 500 to 1000 nM | Cn1c(=O)n(C2CCC(=O)NC2=O)c2ccc(CCCN3CCO[C@@H](CNCc4ccc(-n5cc(NC(=O)c6cnn7ccc(N8CCNCC8)nc67)c(C(F)F)n5)cc4)C3)cc21 (stereo partly shown) [I-617]
30 | > 1000 nM | Cn1c(=O)n(C2CCC(=O)NC2=O)c2cccc(C#CCOCCOCCn3cc4cc(NC(=O)c5cccc(C(F)(F)F)n5)c(C(C)(C)O)cc4n3)c21 (stereo not shown) [I-688, N-[2-[2-[2-[3-[1-(2,6-dioxo-3-piperidyl)-3-methyl-2-oxo-benzimidazol-4-yl]prop-2-ynoxy]ethoxy]ethyl]-6-(1-hydroxy-1-methyl-ethyl)indazol-5-yl]-6-(trifluoromethyl)pyridine-2-carboxamide]
31 | > 1000 nM | Cn1ncc2nc(Nc3cnn(CCOCCOCCOCCNc4cccc5c4C(=O)N(C4CCC(=O)NC4=O)C5=O)c3)nc(NC3CCC(N4CCOCC4)CC3)c21 (stereo not shown) [I-691]
